Where a name gives a salt, the structure may show the parent alone.
Test system: chick chorioallantonic membrane
Assay: Inhibitory effect on angiogenesis in the chick chorioallantonic membrane
Assay type: in vivo, chick (white leghorn)
Settings: pellet on embryo chorioallantonic membrane, cultured two days, rate = positive eggs/tested eggs x100
Description: It was reported that effects of drugs on angiogenesis were evaluated using fertilized egg embryo chorioallantonic membrane as an in vivo angiogenesis evaluation model (Biochem. Biophys. Res. Commun., 174, 1070-1076 (1991)). Accordingly, effects of a cysteine derivative on the angiogenesis evaluation model were studied according to the assay described in the above-mentioned literature.
1. Methyl cellulose (0.1 g) is dissolved in sterile purified water (10 ml) to prepare a 1% solution of methyl cellulose.
2. A test compound is dissolved in ethanol/sterile purified water (1/1) to prepare a 24 μmol/ml solution.
3. The 24 μmol/ml solution of the test compound is diluted with ethanol/sterile purified water (1/1) to prepare 12 μmol/ml and 6 μmol/ml solutions of the test compound.
4. The solution (0.20 ml) of the test compound having each concentration is mixed with the 1% solution (0.20 ml) of methyl cellulose to prepare a mixed solution of the test compound.
5. […]
Hatched eggs (white leghorn) of three days old after fertilization were put up by threes on a culture plate having six wells with their air phases upward and incubated in a CO2 incubator for 20 minutes (temperature: 37° C., humidity: 95%, CO2 concentration: 5%). […] Hatched eggs in which angiogenesis was not observed were defined as positive, and inhibition rates of angiogenesis were calculated by the following equation.

With `CC(C)(CS)C(=O)NC(CS)C(=O)NCCCCCCN` (stereo in doubt) [N^1-(6-aminohexyl)-N^2-(2,2-dimethyl-3-mercaptopropionyl)-L-cysteinamide hydrochloride] the “Inhibition rate of angiogenesis (%)” value (dose 0.06 μmol/egg) was 80% and the “Inhibition rate of angiogenesis (%)” value (dose 0.12 μmol/egg) was 93%.
